This is an account of results in patent US8906929B2, “Inhibitors of human immunodeficiency virus replication” (priority 2012, dated 2014).

Broadly, the pEC50 is −log10 of the EC50, conventionally taken in molar units.

Each structure is given as a SMILES string. pEC50: −log10 of the molar value.

The subject of the assay is recombinant NL-Rluc virus. In words: Inhibition of HIV replication (NL-RLuc virus in MT-2 cells, luciferase readout). The class given is cell-based. The settings on record: Human immunodeficiency virus 1, MT2, 120 h, 5 days of incubation, 10% FBS.
As to `Cc1nc2cc3nn2c(c1[C@H](OC(C)(C)C)C(=O)O)-c1ccc2c(c1Cl)N(C/C=C/CCc1cccc(c1)-c1cccc-3c1)CCO2` [Example 2, (2S)-2-(tert-Butoxy)-2-[(22E)-32-chloro-4-methyl-28-oxa-5,7,8,25-tetraazaheptacyclo[23.6.2.1^6,^9.1^10,^14.1^15,^19.0^2,^7.0^29,^33]hexatriaconta-1 (31), 2,4,6(36),8,10(35), 11, 13, 15(34), 16,18,22,29,32-tetradecaen-3-yl]acetic acid], the pEC50 was 6.14.

With `Cc1nc2cc3nn2c(c1[C@H](OC(C)(C)C)C(=O)O)-c1ccc2c(c1Cl)N(CCCCOc1cccc(c1)-c1cccc-3c1)CCO2` [Example 3, (2S)-2-(tert-Butoxy)-2-{32-chloro-4-methyl-20,28-dioxa-5,7,8,25-tetraazaheptacyclo[23.6.2.1^6,^9.1^10,^14.1^15,^19.0^2,^7.0^29,^33]hexatriaconta-1(31), 2,4, 6(36), 8, 10(35), 11, 13, 15 (34), 16,18,29,32-tridecaen-3-yl}acetic acid], the negative logarithm of the EC50 (pEC50) is 6.38.

`Cc1nc2cc3nn2c(c1[C@H](OC(C)(C)C)C(=O)O)-c1ccc2c(c1Cl)N(CC=CCCc1ccccc1-c1cccc-3c1)CCO2` [Example 4]: the pEC50 is 6.90.

Consider `Cc1nc2cc3nn2c(c1[C@H](OC(C)(C)C)C(=O)O)-c1ccc2c(c1Cl)N(CCCCCCOc1ccccc1-c1cccc-3c1)CCO2` [Example 5, (2S)-2-(tert-Butoxy)-2-{35-chloro-4-methyl-21,31-dioxa-5,7,8,28-tetraazaheptacyclo[26.6.2.1^6,^9.1^10,^14.0^2,^7.0^15,^200^32,36]octatriaconta-1(34),2,4,6(38),8,10(37), 11, 13, 15 (20), 16,18,32,35-tridecaen-3-yl}acetic acid], for which the pEC50 was 7.52.

`Cc1nc2cc3nn2c(c1[C@H](OC(C)(C)C)C(=O)O)-c1cc2c(cc1F)OCCN2CCCCCc1ccccc1-c1cccc-3c1` [Example 6, (2S)-2-(tert-Butoxy)-2-{32-fluoro-4-methyl-29-oxa-5,7,8,26-tetraazaheptacyclo[24.6.2.1^6,^9.1^10,^14.0^2,^7.0^15,^20.0^30,^34]hexatriaconta-1(32),2,4,6(36),8,10(35), 11, 13, 15(20), 16,18,30,33-tridecaen-3-yl}acetic acid]: the pEC50 was 7.27.

`Cc1cc2c3cc1-c1c([C@H](OC(C)(C)C)C(=O)O)c(C)nc4cc(nn14)-c1cccc(c1)-c1ccccc1CCCCCN3CCO2` [Example 7, (2S)-2-(tert-Butoxy)-2-{4,32-dimethyl-29-oxa-5,7,8,26-tetraazaheptacyclo[24.6.2.1^6,^9.1^10,^14.0^2,^7.0^15,^200^30,^34]hexatriaconta-1(32), 2,4,6(36),8,10(35), 11, 13, 15(20), 16,18,30,33-tridecaen-3-yl}acetic acid]: the negative logarithm of the EC50 (pEC50) was 5.45.

For `Cc1nc2cc3nn2c(c1[C@H](OC(C)(C)C)C(=O)O)-c1cc(F)c2c(c1)N(CCCCCc1ccccc1-c1cccc-3c1)CCO2` [Example 16, (2S)-2-(tert-Butoxy)-2-{31-fluoro-4-methyl-29-oxa-5,7,8,26-tetraazaheptacyclo[24.6.2.1^6,^9.1^10,^14.0^2,^7.0^15,^20.0^30,^34]hexatriaconta-1(32),2,4,6(36),8,10(35), 11, 13, 15(20),16,18,30,33-tridecaen-3-yl}acetic acid], the pEC50 was 6.75.

In the case of `Cc1nc2cc3nn2c(c1[C@H](OC(C)(C)C)C(=O)O)-c1ccc2c(c1Cl)N(CCCCCc1ccccc1-c1cccc-3c1)CCO2` [Example 17, (2S)-2-(tert-Butoxy)-2-{33-chloro-4-methyl-29-oxa-5,7,8,26-tetraazaheptacyclo[24.6.2.1^6,^9.1^10,^14.0^2,^7.0^15,^20.0^30,^34]hexatriaconta-1(32),2,4,6(36),8,10(35), 11,13,15(20),16,18,30,33-tridecaen-3-yl}acetic acid], the pEC50 was 6.84.

On to `Cc1nc2cc3nn2c(c1[C@H](OC(C)(C)C)C(=O)O)N1CCC(C)(CC1)OCC=CCCc1ccccc1-c1cccc-3c1` [Example 18, (2S)-2-(tert-Butoxy)-2-[4,27-dimethyl-26-oxa-1,5,7,8-tetraazahexacyclo[25.2.2.1^6,^9.1^10,^14.0^2,^7.0^15,^20]tritriaconta-2,4,6(33),8,10(32),11,13,15(20),16,18,23-undecaen-3-yl]acetic acid], for which the pEC50 is 7.80.

On to `Cc1nc2cc3nn2c(c1[C@H](OC(C)(C)C)C(=O)O)N1CCC(C)(CC1)OCCCCCc1ccccc1-c1cccc-3c1` [Example 19, (2S)-2-(tert-Butoxy)-2-{4,27-dimethyl-26-oxa-1,5,7,8-tetraazahexacyclo[25.2.2.1^6,^9.1^10,^14. 0^2,^7. 0^15,^20]-tritriaconta-2,4,6(33),8,10(32),11,13,15(20),16,18-decaen-3-yl}acetic acid], for which the pEC50 is 7.68.

With `Cc1nc2cc3nn2c(c1[C@H](OC(C)(C)C)C(=O)O)N1CCC(C)(CC1)OC/C=C/COc1ccccc1-c1cccc-3c1` [Example 20, (2S)-2-(tert-Butoxy)-2-[(23E)-4,27-dimethyl-21,26-dioxa-1,5,7,8-tetraazahexacyclo[25.2.2.1^6,^9.1^10,^14.0^2,^7.0^15,^20]tritriaconta-2,4,6(33),8,10(32),11,13,15(20),16,18,23-undecaen-3-yl]acetic acid], the pEC50 is 8.30.

Regarding `Cc1nc2cc3nn2c(c1[C@H](OC(C)(C)C)C(=O)O)N1CCC(C)(CC1)OCCCCOc1ccccc1-c1cccc-3c1` [Example 21, (2S)-2-(tert-Butoxy)-2-{4,27-dimethyl-21,26-dioxa-1,5,7,8-tetraazahexacyclo[25.2.2.1^6,^9.1^10,^14.0^2,^7.0^15,^20]-tritriaconta-2,4, 6(33), 8, 10(32), 11, 13, 15(20),16,18-decaen-3-yl}acetic acid], the pEC50 was 8.15.

Take `Cc1nc2cc3nn2c(c1[C@H](OC(C)(C)C)C(=O)O)N1CCC(C)(CC1)OCC=C[C@H](C)Oc1ccccc1-c1cccc-3c1` [Example 23, (2S)-2-(tert-Butoxy)-2-[(22S)-4,22,27-trimethyl-21,26-dioxa-1,5,7,8-tetraazahexacyclo[25.2.2.1^6,^9.1^10,^14.0^2,^7.0^15,^20]tritriaconta-2,4,6(33),8,10(32),11,13,15(20),16,18,23-undecaen-3-yl]acetic acid]: the pEC50 was 7.96.

As for `Cc1nc2cc3nn2c(c1[C@H](OC(C)(C)C)C(=O)O)N1CCC(C)(CC1)OCCC[C@H](C)Oc1ccccc1-c1cccc-3c1` [Example 24, (2S)-2-(tert-Butoxy)-2-[(22S)-4,22,27-trimethyl-21,26-dioxa-1,5,7,8-tetraazahexacyclo[25.2.2.1^6,^9.1^10,^14.0^2,^7.0^15,^20]tritriaconta-2,4,6(33),8,10(32),11,13,15(20),16,18-decaen-3-yl]acetic acid], the pEC50 was 8.10.

In the case of `Cc1nc2cc3nn2c(c1[C@H](OC(C)(C)C)C(=O)O)N1CCC(C)(CC1)OCCC[C@@H](C)Oc1ccccc1-c1cccc-3c1` [Example 25, (2S)-2-(tert-Butoxy)-2-[(22R)-4,22,27-trimethyl-21,26-dioxa-1,5,7,8-tetraazahexacyclo[25.2.2.1^6,^9.1^10,^14.0^2,^7.0^15,^20]tritriaconta-2,4,6(33),8,10(32),11,13,15(20),16,18-decaen-3-yl]acetic acid], the pEC50 is 7.42.

For the compound `Cc1nc2cc3nn2c(c1[C@H](OC(C)(C)C)C(=O)O)N1CCC(C)(CC1)OCC=CCCOc1ccccc1-c1cccc-3c1` [Example 26, (2S)-2-(tert-Butoxy)-2-[4,28-dimethyl-21,27-dioxa-1,5,7,8-tetraazahexacyclo[26.2.2.1^6,^9.1^10,^14.0^2,^7.0^15,^20]tetratriaconta-2,4,6(34),8,10(33),11,13,15(20),16,18,24-undecaen-3-yl]acetic acid], the pEC50 is 7.39.

For `Cc1nc2cc3nn2c(c1[C@H](OC(C)(C)C)C(=O)O)N1CCC(C)(CC1)OCCCCCOc1ccccc1-c1cccc-3c1` [Example 27, (2S)-2-(tert-Butoxy)-2-{4,28-dimethyl-21,27-dioxa-1,5,7,8-tetraazahexacyclo[26.2.2.1^6,^9.1^10,^14.0^2,^7.0^15,^20]tetratriaconta-2,4,6(34),8,10(33),11,13,15(20),16,18-decaen-3-yl}acetic acid], the pEC50 is 8.00.

As for `Cc1nc2cc3nn2c(c1[C@H](OC(C)(C)C)C(=O)O)N1CCC(C)(CC1)OCCCC[C@@H](C)Oc1ccccc1-c1cccc-3c1` [Example 28, (2S)-2-(tert-Butoxy)-2-[(22R)-4,22,28-trimethyl-21,27-dioxa-1,5,7,8-tetraazahexacyclo[26.2.2.1^6,^9.1^10,^14.0^2,^7.0^15,^20]tetratriaconta-2,4,6(34),8,10(33), 11, 13, 15 (20),16,18-decaen-3-yl]acetic acid], the pEC50 is 7.40.

Consider `Cc1nc2cc3nn2c(c1[C@H](OC(C)(C)C)C(=O)O)N1CCC(C)(CC1)OCCCC[C@H](C)Oc1ccccc1-c1cccc-3c1` [Example 29, (2S)-2-(tert-Butoxy)-2-[(22S)-4,22,28-trimethyl-21,27-dioxa-1,5,7,8-tetraazahexacyclo[26.2.2.1^6,^9.1^10,^14.0^2,^7.0^15,^20]tetratriaconta-2,4,6(34),8,10(33), 11, 13, 15 (20),16,18-decaen-3-yl]acetic acid], for which the pEC50 was 7.74.

As for `Cc1nc2cc3nn2c(c1[C@H](OC(C)(C)C)C(=O)O)N1CCC(C)(CC1)OCCCCCCc1ccccc1-c1cccc-3c1` [Example 30, (2S)-2-(tert-Butoxy)-2-{4,28-dimethyl-27-oxa-1,5,7,8-tetraazahexacyclo[26.2.2.1^6,^9.1^10,^14.0^2,^7.0^15,^20]tetratriaconta-2,4,6(34),8,10(33), 11, 13, 15(20),16,18-decaen-3-yl}acetic acid], the pEC50 is 7.57.

In the case of `Cc1nc2cc3nn2c(c1[C@H](OC(C)(C)C)C(=O)O)N1CCC(C)(CC1)OCC=CCOc1ccc(Cl)cc1-c1cccc-3c1` [Example 31, (2S)-2-(tert-Butoxy)-2-[17-chloro-4,2,7-dimethyl-21,26-dioxa-1,5,7,8-tetraazahexacyclo[25.2.2.1^6,^9.1^10,^14.0^2,^7.0^15,^20]tritriaconta-2,4,6(33),8,10(32),11,13,15(20),16,18,23-undecaen-3-yl]acetic acid], the pEC50 is 8.22.
